Experimental findings from patent US20230407243A1, “GENETIC PLATFORM TO INVESTIGATE THE FUNCTIONS OF BACTERIAL DRUG EFFLUX PUMPS” (priority 2022, published 2023) are described below.

Where two headings read alike, the source gives them in different places.

Holding throughout (assay type): cell-based, Escherichia coli
The test system of assay [1] is EKO-35 araC::mdtBC. Put plainly: MIC susceptibility profiling, efflux platform. To be noted: for Fold change of MICs: EKO-35 araC::mdtBC compared to EKO-35; for MIC: Escherichia coli, read-out: Minimum Inhibitory Concentration, EKO-35 araC::mdtBC; for MIC / Minimum Inhibitory Concentration, EKO-35 araC::mdtBC: Table 13B, non-porinated, technical duplicate. A digest of the protocol: (§1)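 Turbidity (OD600, pre-incubation subtracted) defined growth after 18 h at 37 °C in MHB II. The inoculum was diluted 1/2000 from an OD600 ~1.0 PBS suspension of an overnight LB culture. Compounds were run as duplicate twofold dilutions.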

Assay [2] has as its system EKO-35 araC::mexCD (MexCD from P. aeruginosa). The assay can be described thus: MIC susceptibility profiling, efflux platform. The following applies: for Fold change of MICs: EKO-35 araC::mexCD compared to EKO-35; for MIC / Minimum Inhibitory Concentration, EKO-35 araC::mexCD: Table 13B, non-porinated, technical duplicate; for MIC: read-out: Minimum Inhibitory Concentration, EKO-35 araC::mexCD. The method, boiled down:
as §1

In assay [3] the test system is EKO-35 araC::acrD. Put plainly: MIC susceptibility profiling, efflux platform. The following applies: for Fold change of MICs: EKO-35 araC::acrD compared to EKO-35; for MIC: Escherichia coli, read-out: Minimum Inhibitory Concentration, EKO-35 araC::acrD; for MIC / Minimum Inhibitory Concentration, EKO-35 araC::acrD: Table 13A, non-porinated, technical duplicate. A digest of the protocol: as §1

For assay [4], the system named is EKO-35 araC::acrB. Put plainly: MIC susceptibility profiling, efflux platform. To be noted: for Fold change of MICs: EKO-35 araC::acrB compared to EKO-35; for MIC: Escherichia coli, read-out: Minimum Inhibitory Concentration, EKO-35 araC::acrB; for MIC / Minimum Inhibitory Concentration, EKO-35 araC::acrB: Table 13A, non-porinated, technical duplicate. A digest of the protocol: as §1

The test system of assay [5] is EKO-35-Pore. The assay can be described thus: MIC susceptibility profiling, porinated strain. The following applies: for Fold changes of MICs: EKO-35-Pore compared to EKO-35-Pore (reference); for MIC: Escherichia coli; for MIC / Minimum inhibitory concentration (MIC), Pore EKO-35 / Minimum inhibitory concentration, EKO-35-Pore: technical duplicate. A digest of the protocol: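 E. coli strains carrying a genomically integrated constitutive fhuA ΔC/Δ4L pore were grown 18 h in LB at 37 °C, then diluted 1/2000 in MHB II from OD600 ~1.0. Compounds were tested in duplicate, 2-fold serial titration, for 18 h at 37 °C with shaking. MIC came from OD600 with the pre-incubation background subtracted.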

For assay [6], the system named is E. coli EKO-35. Put plainly: microbe, parasite or virus in culture. To be noted: for Fold change of MICs: EKO-35 compared to EKO-35 (reference); for MIC: Escherichia coli. The method, boiled down: as §1
Assay [7] concerns E. coli ΔtolC. Put plainly: microbe, parasite or virus in culture. To be noted: for MIC: Escherichia coli, 18 h, read-out: Minimum Inhibitory Concentration, ΔtolC; for Minimum inhibitory concentration (MIC), ΔtolC: Table 10, without pore; for Minimum inhibitory concentration (MIC), ΔtolC / Minimum Inhibitory Concentration, ΔtolC: technical duplicate; for Minimum Inhibitory Concentration, ΔtolC: Table 13A, non-porinated. The method, boiled down:
as §1

In assay [8] the test system is wild-type E. coli K-12 str. BW25113. The assay can be described thus: microbe, parasite or virus in culture. To be noted: for MIC: Escherichia coli. A digest of the protocol:
as §1

Setting [9] is: Table 10, with pore, read-out: Minimum inhibitory concentration (MIC), Pore EKO-35.
Setting [10] is: Table 14A, porinated, read-out: Minimum inhibitory concentration, EKO-35-Pore.
Where [11] appears, read: EKO35, Table 10, without pore, technical duplicate, read-out: Minimum inhibitory concentration (MIC), EKO-35.
Where [12] appears, read: EKO35, Table 13A, non-porinated, technical duplicate, read-out: Minimum Inhibitory Concentration, EKO-35.
The mark [13] stands for this setting: BW25113, Table 10, without pore, technical duplicate, read-out: Minimum inhibitory concentration (MIC), K-12.
Setting [14] is: BW25113, Table 13A, non-porinated, technical duplicate, read-out: Minimum Inhibitory Concentration, K-12.
[15] abbreviates: Table 10, without pore, technical duplicate.
The mark [16] stands for this setting: Table 13A, non-porinated, technical duplicate.

As for `COc1ccc(C[C@H](N)C(=O)N[C@H]2[C@@H](O)[C@H](n3cnc4c(N(C)C)ncnc43)O[C@@H]2CO)cc1` [puromycin], the “Fold change of MICs” value in assay [1] is 1 fold; in assay [2] it was 4 fold; in assay [3], 1 fold; in assay [4], 64 fold; in assay [6] it was 1 fold. Moreover, the MIC in assay [1] worked out at 1.56 µg/mL; in assay [2], 6.25 µg/mL; in assay [3] it was 1.56 µg/mL; in assay [4], 100 µg/mL; in assay [5] (setting [9]) it was 0.781 µg/mL; in assay [5] (setting [10]) it was 0.781 µg/mL. Also, the MIC came out at 1.56 µg/mL in assay [6] (setting [11]); 1.56 µg/mL in assay [6] (setting [12]); 3.12 µg/mL in assay [7]; 50 µg/mL in assay [8] (setting [13]); 50 µg/mL in assay [8] (setting [14]). Moreover, the “Fold changes of MICs” value in assay [5] amounted to 1 fold. For the same molecule, in assay [7], the “Minimum inhibitory concentration (MIC), ΔtolC” value was 3.125 µg/mL.
Take `CCn1cc(C(=O)O)c(=O)c2cc(F)c(N3CCNCC3)cc21` [norfloxacin]: the “Fold change of MICs” value is reported as 1 fold in assay [1]; 2 fold in assay [2]; 1 fold in assay [3]; 4 fold in assay [4]; 1 fold in assay [6]. In addition, the MIC is 0.02 µg/mL in assay [1]; 0.039 µg/mL in assay [2]; 0.02 µg/mL in assay [3]; 0.01 µg/mL in assay [5] (setting [9]); 0.01 µg/mL in assay [5] (setting [10]); 0.02 µg/mL in assay [6] (setting [11]). Besides, the MIC was found to be 0.02 µg/mL in assay [6] (setting [12]), 0.02 µg/mL in assay [7], 0.078 µg/mL in assay [8] (setting [13]) and 0.078 µg/mL in assay [8] (setting [14]). The “Fold changes of MICs” value in assay [5] came to 1 fold. In addition, the “Minimum inhibitory concentration (MIC), ΔtolC” value in assay [7] came to 0.020 µg/mL.
Take `CN(C)c1ccc(O)c2c1C[C@H]1C[C@H]3[C@H](N(C)C)C(O)=C(C(N)=O)C(=O)[C@@]3(O)C(O)=C1C2=O` [minocycline]: the “Fold change of MICs” value in assay [1] is 1 fold; in assay [2] it was 1 fold; in assay [3], 2 fold; in assay [4], 8 fold; in assay [6] it was 1 fold. The MIC in assay [1] was 0.049 µg/mL; in assay [2] it was 0.049 µg/mL; in assay [3] it was 0.098 µg/mL; in assay [4], 0.391 µg/mL; in assay [5] (setting [9]), 0.049 µg/mL; in assay [5] (setting [10]), 0.049 µg/mL. For the same molecule, the MIC in assay [6] (setting [11]) is 0.049 µg/mL; in assay [6] (setting [12]), 0.049 µg/mL; in assay [7], 0.098 µg/mL; in assay [8] (setting [13]) it was 0.781 µg/mL; in assay [8] (setting [14]), 0.781 µg/mL. The “Fold changes of MICs” value in assay [5] was 1 fold. Besides, the “Minimum inhibitory concentration (MIC), ΔtolC” value in assay [7] was determined as 0.098 µg/mL.
Take `CCCCCCCCCCCCOS(=O)(=O)[O-].[Na+]` [SDS, sodium dodecyl sulphate]: the “Fold change of MICs” value in assay [1] turned out to be 2 fold; in assay [2] it was 32 fold; in assay [3], 32 fold; in assay [4], 32 fold; in assay [6] it was 1 fold. Moreover, the MIC in assay [1] worked out at 62.5 µg/mL; in assay [2], 1000 µg/mL; in assay [5] (setting [9]), 31.2 µg/mL; in assay [5] (setting [10]), 31.2 µg/mL; in assay [6] (setting [11]) it was 31.2 µg/mL; in assay [6] (setting [12]) it was 31.2 µg/mL. Moreover, the MIC in assay [7] came out at 15.6 µg/mL; in assay [8] (setting [13]), 1000 µg/mL; in assay [8] (setting [14]) it was 1000 µg/mL. Moreover, the “efflux pump-mediated resistance vs EKO-35” value in assay [3] (AcrD) is on record as “confirmed”. For the same molecule, the “Fold changes of MICs” value in assay [5] came out at 1 fold. Further, in assay [7], the “Minimum inhibitory concentration (MIC), ΔtolC” value turned out to be 15.625 µg/mL.
With `Nc1ccccc1SCc1nc(-c2ccc(Cl)cc2)no1` [compound 16], in assay [1], the “Fold change of MICs” value is on record as 1 fold and the “Minimum Inhibitory Concentration, EKO-35 araC::mdtBC” value is 5 µg/mL. In addition, in assay [2], the “Fold change of MICs” value turned out to be 16 fold and the “Minimum Inhibitory Concentration, EKO-35 araC::mexCD” value came out at 160 µg/mL. Besides, in assay [3], the “Fold change of MICs” value came to 1 fold and the “Minimum Inhibitory Concentration, EKO-35 araC::acrD” value was found to be 10 µg/mL. Further, in assay [4], the “Fold change of MICs” value came to 32 fold and the “Minimum Inhibitory Concentration, EKO-35 araC::acrB” value came out at 320 µg/mL. Besides, the “Fold changes of MICs” value in assay [5] is recorded as 1 fold. Also, the “Minimum inhibitory concentration (MIC), Pore EKO-35” value in assay [5] (Table 10, with pore) was 5 µg/mL. Also, the “Minimum inhibitory concentration, EKO-35-Pore” value in assay [5] (Table 14A, porinated) was 5 µg/mL. In addition, in assay [6], the “Fold change of MICs” value came to 1 fold. Further, in assay [6] (setting [15]), the “Minimum inhibitory concentration (MIC), EKO-35” value was determined as 10 µg/mL. Moreover, in assay [6] (setting [16]), the “Minimum Inhibitory Concentration, EKO-35” value worked out at 10 µg/mL. In addition, in assay [6] (synthetic efflux substrates of FIG. 12), the “susceptibility of EKO-35 to the compound” value was “susceptible”. Also, in assay [7], the “Minimum inhibitory concentration (MIC), ΔtolC” value is 10 µg/mL and the “Minimum Inhibitory Concentration, ΔtolC” value turned out to be 10 µg/mL. Further, in assay [8] (setting [15]), the “Minimum inhibitory concentration (MIC), K-12” value came to 320 µg/mL. Also, in assay [8] (setting [16]), the “Minimum Inhibitory Concentration, K-12” value came to 320 µg/mL.
Consider `O=C(Nc1ccccc1C(=O)Nc1nnc(C(F)(F)F)s1)c1ccccc1Cl` [compound 19], for which, in assay [1], the “Fold change of MICs” value was determined as 1 fold and the “Minimum Inhibitory Concentration, EKO-35 araC::mdtBC” value is 320 µg/mL. In assay [2], the “Fold change of MICs” value is listed as 1 fold and the “Minimum Inhibitory Concentration, EKO-35 araC::mexCD” value is 320 µg/mL. Moreover, in assay [3], the “Fold change of MICs” value is 1 fold and the “Minimum Inhibitory Concentration, EKO-35 araC::acrD” value was 320 µg/mL. In assay [4], the “Fold change of MICs” value was determined as 1 fold and the “Minimum Inhibitory Concentration, EKO-35 araC::acrB” value came out at 320 µg/mL. Besides, the “Fold changes of MICs” value in assay [5] worked out at 1 fold. Also, the “Minimum inhibitory concentration (MIC), Pore EKO-35” value in assay [5] (Table 10, with pore) came to 320 µg/mL. Also, the “Minimum inhibitory concentration, EKO-35-Pore” value in assay [5] (Table 14A, porinated) came to 320 µg/mL. Besides, the “Fold change of MICs” value in assay [6] amounted to 1 fold. In addition, the “Minimum inhibitory concentration (MIC), EKO-35” value in assay [6] (setting [15]) was found to be 320 µg/mL. Moreover, in assay [6] (setting [16]), the “Minimum Inhibitory Concentration, EKO-35” value came out at 320 µg/mL. Also, in assay [7], the “Minimum inhibitory concentration (MIC), ΔtolC” value is 2.5 µg/mL and the “Minimum Inhibitory Concentration, ΔtolC” value was 2.5 µg/mL. The “Minimum inhibitory concentration (MIC), K-12” value in assay [8] (setting [15]) was 320 µg/mL. Besides, in assay [8] (setting [16]), the “Minimum Inhibitory Concentration, K-12” value was found to be 320 µg/mL.
In the case of `COc1cc(Cc2cnc(N)nc2N)cc(OC)c1OC` [trimethoprim], the “Fold change of MICs” value came to 1 fold in assay [1]; 2 fold in assay [2]; 2 fold in assay [3]; 8 fold in assay [4]; 1 fold in assay [6]. Moreover, the MIC in assay [2] is 0.391 µg/mL; in assay [4] it was 1.56 µg/mL; in assay [6] (EKO35, read-out: Minimum Inhibitory Concentration, EKO-35), 0.195 µg/mL; in assay [6] (EKO35, read-out: Minimum inhibitory concentration (MIC), EKO-35), 0.195 µg/mL; in assay [7], 0.098 µg/mL; in assay [8] (BW25113, read-out: Minimum Inhibitory Concentration, K-12), 0.391 µg/mL. In addition, in assay [8] (BW25113, read-out: Minimum inhibitory concentration (MIC), K-12), the MIC was 0.391 µg/mL. Further, the “Fold changes of MICs” value in assay [5] is listed as 1 fold. The “Minimum inhibitory concentration (MIC), ΔtolC” value in assay [7] was 0.098 µg/mL.
